Measurements from patent US8324226B2, “Therapeutic oxy-phenyl-aryl compounds and their use” (Cancer Research Technology Limited, priority 2007, dated 2012).
Where “and” joins values, the source holds several entries; their conditions need not be identical. Equal values may be shown once. Read-outs that look alike come from different tables or passages of the source.

Target: T1, CHK2 (Homo sapiens, UniProt O96017)
T1 construct: made in house
Assay: CHK2 kinase activity assay (DELFIA, phosphorylation of a CDC25C peptide)
Assay type: biochemical
Conditions: ATP 30 μM, CHK2 1 nM, read-out: IC50, inhibition of CHK2 kinase activity in vitro

T1 sequence (O96017 whole entry): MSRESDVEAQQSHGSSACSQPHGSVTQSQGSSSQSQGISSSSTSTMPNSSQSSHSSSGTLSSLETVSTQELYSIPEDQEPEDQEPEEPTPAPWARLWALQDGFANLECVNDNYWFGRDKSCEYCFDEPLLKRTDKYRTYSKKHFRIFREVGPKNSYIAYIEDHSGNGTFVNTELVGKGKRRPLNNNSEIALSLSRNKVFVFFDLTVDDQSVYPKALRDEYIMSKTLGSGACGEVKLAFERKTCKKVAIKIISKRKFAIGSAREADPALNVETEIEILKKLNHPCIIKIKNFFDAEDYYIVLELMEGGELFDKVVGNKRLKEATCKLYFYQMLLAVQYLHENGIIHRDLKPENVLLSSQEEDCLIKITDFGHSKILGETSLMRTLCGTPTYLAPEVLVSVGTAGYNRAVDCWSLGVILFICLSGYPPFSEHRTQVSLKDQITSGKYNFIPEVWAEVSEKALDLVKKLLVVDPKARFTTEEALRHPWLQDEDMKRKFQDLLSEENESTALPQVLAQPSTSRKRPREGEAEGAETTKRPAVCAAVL

| Structure (SMILES) | IC50 (first set of tested compounds) [µM] | IC50 (following further studies) |
| --- | --- | --- |
| Oc1ccccc1-c1nc(N[C@H]2CCNC2)c2cc(-c3ccccc3)ccc2n1 [Compound A-025, (S)-2-(6-Phenyl-4-(pyrrolidinyl-3-ylamino)quinazolin-2-yl)phenol] | 3 to 30 | 3 to 30 µM |
| Oc1ccc(Cl)cc1-c1nc(NC2CCCCNC2)c2ccccc2n1 (stereo not drawn) [Compound A-058, 2-(4-(Azepan-3-ylamino)quinazolin-2-yl)-4-chlorophenol] |  | ≤ 0.3 µM |
| C[C@@H]1CNC[C@H]1Nc1nc(-c2cc(F)ccc2O)nc2ccccc12 (relative stereo) [Compound A-099, 4-Fluoro-2-(4-(trans-4-methylpyrrolidin-3-ylamino)quinazolin-2-yl)phenol] |  | ≤ 0.3 µM |
| OCC#Cc1ccc2c(N[C@H]3CCNC3)nc(-c3ccccc3O)nc2c1 [Compound A-054, (S)-2-(7-(3-Hydroxyprop-1-ynyl)-4-(pyrrolidin-3-ylamino)quinazolin-2-yl)phenol] | < 3 | ≤ 0.3 µM |
| Oc1ccc(Cl)cc1-c1nc(N[C@@H]2CCCNC2)c2ccccc2n1 [Compound A-013, (R)-4-Chloro-2-(4-(piperidin-3-ylamino)quinazolin-2-yl)phenol] | < 3 | ≤ 0.3 µM |
| Oc1ccccc1-c1nccc(N[C@H]2CCNC2)n1 [Compound D-002] | 3 to 30 | 3 to 30 µM and 8.2 µM |
| Oc1ccc(Br)cc1-c1nc(N[C@H]2CCNC2)c2ccccc2n1 [Compound A-041, (S)-4-Bromo-2-(4-(pyrrolidin-3-ylamino)quinazolin-2-yl)phenol] | < 3 | ≤ 0.3 µM |
| COc1ccc2c(N[C@H]3CCNC3)nc(-c3cc(F)ccc3O)nc2c1 [Compound A-074, (S)-4-Fluoro-2-(7-methoxy-4-(pyrrolidin-3-ylamino)quinazolin-2-yl)phenol] |  | ≤ 0.3 µM |
| CN1CCC[C@H](Nc2nc(-c3ccccc3O)nc3ccccc23)C1 [Compound A-007, 2-[4-((S)-1-Methylpiperidin-3-ylamino)-quinazolin-2-yl]-phenol] | 3 to 30 | 3 to 30 µM |
| Oc1ccccc1-c1nc(N[C@H]2CCNC2)c2ccc(-c3cn[nH]c3)cc2n1 [Compound A-065, (S)-2-(7-(1H-Pyrazol-4-yl)-4-(pyrrolidin-3-ylamino)quinazolin-2-yl)phenol] |  | ≤ 0.3 µM |
| O=C([C@H]1C[C@H](Nc2nc(-c3ccccc3O)nc3ccccc23)CN1)N1CCCC1 [Compound A-034, ((2R,4S)-4-(2-(2-Hydroxyphenyl)quinazolin-4-ylamino)pyrrolidin-2-yl)(pyrrolidin-1-yl)methanone] | < 3 | ≤ 0.3 µM |
